In patent publication US20030082101A1, “Accelerators for increasing the rate of formation of free radicals and reactive oxygen species” (Cavalier Discovery, priority 2001, published 2003):

Key:
deoxyribose [1] = assay: TBARS assay, chelants during ultrasound exposure, ferric iron (Example 2); assay type: biochemical; details: 0.02-0.03 mM ferric iron, 0.04-0.05 mM chelant, 0.01% hydrogen peroxide, pH 7.5, 30 W 2 MHz 10 min
Method: (§1) The following example uses the thiobarbituric acid-reactive substances (TBARS) assay to identify chelants that enhance radical production during ultrasound exposure. All solutions were prepared in pH 7.5 phosphate buffer containing approximately 2 mM deoxyribose, 0.01% hydrogen peroxide, 0.02-0.03 mM ferric iron, and 0.04-0.05 mM chelant. Solutions were sonicated at 30 W, 2 MHz, 32-34 degrees Celsius for ten minutes using a PZT-8 1.8 cm diameter custom transducer. The sonicated solution was placed on an orbit shaker rotating at 25 RPM to ensure even sonication of the solution while the transducer was held stationary. Control solutions were placed in a controlled temperature bath at 32-34 degrees Celsius without sonication. After 10 minutes of treatment, 1 mL test solution was placed in a test tube followed by 2 mL of 1% 2-thiobarbituric acid and 2 mL of 2.8% trichloroacetic acid. The test tube was sealed and heated to 90 degrees Celsius for 30 minutes and allowed to cool to room temperature for 20 minutes. The absorbance at 532 nm was measured. The enhanced radical production during ultrasound exposure was determined by comparing the amount of deoxyribose degradation that occurs in the sonicated solution versus the control solution using the following equation: [formula]

deoxyribose [2] = assay: TBARS assay, additives in solutions containing iron or iron plus a chelant, ultrasound (Example 5); assay type: biochemical; details: 0.08-0.1 mM ferric iron; EDTA 0.15 mM; 30 W 2 MHz 10 min
Method: The following example uses the thiobarbituric acid-reactive substances (TBARS) assay to identify compounds that enhance radical production during ultrasound exposure of solutions containing iron or iron plus a chelant. All solutions were prepared in pH 7.5 phosphate buffer containing approximately 2 mM deoxyribose, 0.01% hydrogen peroxide, 0.08-0.1 mM ferric iron, and the additives indicated in the table below. Solutions were sonicated at 30 W, 2 MHz, 32-34 degrees Celsius for ten minutes using a PZT-8 1.8 cm diameter custom transducer. The sonicated solution was placed on an orbit shaker rotating at 25 RPM to ensure even sonication of the solution while the transducer was held stationary. Control solutions were placed in a controlled temperature bath at 32-34 degrees Celsius without sonication. […] The test tube was sealed and heated to 90 degrees Celsius for 30 minutes and allowed to cool to room temperature for 20 minutes. The absorbance at 532 nm was measured. The enhanced radical production during ultrasound exposure was determined by comparing the amount of deoxyribose degradation that occurs in the sonicated solution versus the control solution using the following equation: [formula]

[3] = on chelation of iron; cited from earlier work
deoxyribose [4] = assay: TBARS assay, chelants during ultrasound exposure, ferrous iron (Example 1); assay type: biochemical; details: 0.025 mM ferrous iron, 0.03-0.04 mM chelant, 0.01% hydrogen peroxide, pH 7.5, 30 W 2 MHz 10 min
Method: as §1, with “peroxide, 0.025” for “peroxide, 0.02-0.03”, “mM ferrous” for “mM ferric”, “and 0.03-0.04” for “and 0.04-0.05”, “exposure is” for “exposure was”

Question: For `O=C(O)CN(CCN(CC(=O)O)CC(=O)O)CC(=O)O` [Ethylenediaminetetraacetic acid], which “% Ultrasound Mediated Activity vs Control” value (deoxyribose [1]) is on record?
Answer: Its value is 575%.

Question: And the “% Ultrasound Mediated Activity vs Control” value (deoxyribose [2])?
Answer: Its value is 277%.

Question: And the “lowering of the redox potential of Fe(III)/Fe(II)” value [3]?
Answer: The value was 0.65 V.

Question: And the “% Ultrasound Mediated Activity vs Control” value (deoxyribose [4])?
Answer: Its value is 64%.
